Type in all cases: cell-based
Experiment [1] has as its target T1, 11-beta-hydroxysteroid dehydrogenase 1 (Homo sapiens, UniProt P28845). Put plainly: Inhibition of human 11beta-HSD1 in expressed in HEK293 cells microsomal fractions incubated with NADPH and [3H]-cortisone by scintillation proximity assay. For orientation: Scintillation proximity formats need no separation of bound from free tracer.
Target sequence in this assay (P28845 whole entry): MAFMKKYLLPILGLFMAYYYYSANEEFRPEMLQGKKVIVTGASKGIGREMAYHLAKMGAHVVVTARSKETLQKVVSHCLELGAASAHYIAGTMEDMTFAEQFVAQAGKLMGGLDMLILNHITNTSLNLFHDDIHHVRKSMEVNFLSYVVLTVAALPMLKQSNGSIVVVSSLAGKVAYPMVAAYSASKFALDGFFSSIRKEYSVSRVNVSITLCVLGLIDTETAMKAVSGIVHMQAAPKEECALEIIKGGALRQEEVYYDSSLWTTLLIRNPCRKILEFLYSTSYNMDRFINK
Experiment [2] concerns the target 11-beta-hydroxysteroid dehydrogenase 1 (Mus musculus) (UniProt P50172). Put plainly: Inhibition of mouse 11beta-HSD1 in expressed in HEK293 cells microsomal fractions incubated with NADPH and [3H]-cortisone at 10 uM by scintillation proximity assay.
Experiment [3] concerns the target T1, 11-beta-hydroxysteroid dehydrogenase 1. The experiment in a line: Inhibition of human 11beta-HSD1 in expressed in HEK293 cells microsomal fractions incubated with NADPH and [3H]-cortisone at 10 uM by scintillation proximity assay.
Target sequence in this assay (P28845 whole entry, looked up): as the sequence (P28845 whole entry) above
Experiment [4] addresses 11-beta-hydroxysteroid dehydrogenase 1 (Mus musculus, UniProt P50172). The experiment in a line: Inhibition of mouse 11beta-HSD1 in expressed in HEK293 cells microsomal fractions incubated with NADPH and [3H]-cortisone by scintillation proximity assay.

The structures appear in SMILES notation. Where only a bound is given, the exact number is not on record here.

Chain of 11-beta-hydroxysteroid dehydrogenase 1 (Mus musculus) (P50172 whole entry, looked up): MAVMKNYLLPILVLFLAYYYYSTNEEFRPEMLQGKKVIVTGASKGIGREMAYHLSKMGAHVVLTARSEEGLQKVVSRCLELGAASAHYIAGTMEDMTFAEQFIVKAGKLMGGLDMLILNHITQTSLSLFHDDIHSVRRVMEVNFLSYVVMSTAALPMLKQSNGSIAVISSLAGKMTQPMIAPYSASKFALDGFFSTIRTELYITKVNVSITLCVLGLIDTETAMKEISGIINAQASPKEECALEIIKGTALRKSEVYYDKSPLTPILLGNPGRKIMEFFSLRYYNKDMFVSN
Chain of 11-beta-hydroxysteroid dehydrogenase 1 (Mus musculus, UniProt P50172) (P50172 whole entry): as the sequence (P50172 whole entry, looked up) above

What is called IC50 is the midpoint of a concentration-inhibition curve. The low end stands for greater potency, the high end for weaker potency. What is called inhibition is the change of the read-out against control, counted positive when it falls. Read a high inhibition as a strong effect. Take `C=C(CC[C@@H](C(=O)O)[C@H]1CC[C@@]2(C)[C@@H]3CC[C@H]4C(C)(C)C(=O)CC[C@@]45C[C@@]35CC[C@]12C)C(C)C`: half-maximal inhibition in experiment [1] (IC50) required 2.3 µM. Also, the inhibition in experiment [2] is > 60%.
In the case of `C=C(CC[C@@H](COC(C)=O)[C@H]1CC[C@@]2(C)[C@@H]3CC[C@@H](C(=C)C)[C@@]4(CCC(=O)O)C[C@@]34CC[C@]12C)C(C)C`, the results for the IC50 in experiment [1] and in experiment [4] were 4.1 µM and 2800 nM, respectively. Moreover, the inhibition is 73% in experiment [2] and > 60% in experiment [3].
The corresponding values for `C=C(CC[C@@H](CO)[C@H]1CC[C@@]2(C)[C@@H]3CC[C@@H](C(=C)C)[C@@]4(CCC(=O)O)C[C@@]34CC[C@]12C)C(C)C` are 1.4 µM, 490 nM, 94% and > 80%.
For the compound `C=C(CC[C@@H](COC(C)=O)[C@H]1CC[C@@]2(C)[C@@H]3CC[C@@H](C(C)(C)O)[C@@]4(CCC(=O)O)C[C@@]34CC[C@]12C)C(C)C`, the IC50 in experiment [1] was found to be 3.8 µM.

Values taken from ChEMBL document CHEMBL3352672, “Lithocarpic acids O-S, five homo-cycloartane derivatives from the cupules of Lithocarpus polystachyus” (Bioorg Med Chem Lett, 2014).
